Read-outs that look alike come from different tables or passages of the source.
Legend:
Adjuvant arthritis = Adjuvant arthritis (paw volume increase); type: in vivo, male rats of a Wistar-Lewis strain; settings: for Adjuvant arthritis (% inhibition at 50 mg/kg p.o.): rat, 50 mg/kg p.o. once daily, day 1 to day 5, reduction in increase in paw volume vs control; for ED50: Rattus norvegicus, po, read-out: ED50 in adjuvant arthritis
Method: The investigations were carried out by the method of Pearson (Arthrit. Rheum. 2 (1959) p. 44). The experimental animals used were male rats of a Wistar-Lewis strain having a body weight between 130 and 200 g. The compounds to be tested were administered orally (p.o.) once daily from day 1 to day 5 of the experiment in doses of 50 mg per kg of body weight. The animals of a control group received only the vehicle. Each preparation and control group comprised 8 animals. The criterion used to determine an action was the percentage reduction in the increase in paw volume compared to that of the untreated control group.

[1] = Acute gastral ulcerogenity; parameters: species or system male Sprague-Dawley rats; settings: rat, in vivo, po
Method: The investigation took place in each case on 10 male Sprague-Dawley rats in which the gastric mucous membrane had been sensitized by hunger stress. The body weight of the animals was between 200 and 300 g. While allowing free access to the drinking water, the feed was withdrawn 48 hours before administration of the test preparations until sacrifice of the animals. The rats were sacrificed 24 hours after oral administration of the substance, and the stomachs were removed, cleaned under running water and inspected for mucous membrane lesions. All macroscopically visible lesions were regarded as ulcers. The number of animals having ulcers was determined for each dose, and the UD50 values, i.e. the doses at which lesions were caused in 50% of the animals, were calculated from this number by the method of Litchfield and Wilcoxon (J. Pharmacol. Exp. Ther. 96 (1949) p. 99).

in vivo = settings: mouse, ip; for LD50 at 168 h: read-out: Acute toxicity LD50
Method: The LD50 values were determined by a standard method from the mortality occurring within 7 days in NMRI (Naval Medical Research Institute) mice (6 animals per dose) after a single intraperitoneal (i.p.) administration.

lymphocytes [2] = assay: Stimulation of suppressed immune response of lymphocytes towards mitogens in adjuvant arthritis; type: in vivo, rat; settings: oral, Example 1 at 3.15 and 6.3 mg/kg, naproxen in doses up to 25 mg/kg
[3] = system: Arthritis induced by type II collagen; assay: Arthritis induced by type II collagen (paw volume); type: in vivo, male Wistar rats; settings: for inhibition of the increase in paw volume, collagen arthritis: oral once daily, 20-day treatment, naproxen at the same dosage
Method: (§1) In this experiment, arthritis was induced in male Wistar rats using type II collagen, which was obtained by standard methods of Miller and Rhodes (Meth. Enzymol. 82 (1982) p. 33) from the nasal septum of the calf and, mixed with Freund's incomplete adjuvant, was injected intradermally into the animals. This immunization process was repeated 7 days later. 20 days after the initial immunization, the affected rats were divided into groups each comprising 7 animals, which received the particular test substance or the pure vehicle (control group) orally once daily in the subsequent 20-day treatment phase. On day 41 of the experiment, i.e. one day after the final administration of substance, the increase in volume of both rear paws was determined.

lymphocytes [4] = assay: Immune activity of spleen lymphocytes towards mitogens in collagen arthritis; type: in vivo, male Wistar rats; settings: Example 1: 12 mg/kg p.o.
Method: as §1
The immune status of lymphocytes is also disturbed sensitively in this model of collagen arthritis.

[5] = system: Adriamycin-induced inflammation; assay: Adriamycin-induced inflammation; type: in vivo, male Sprague-Dawley rats; settings: for Increase in paw volume: 72 hours, control 430; for Protective action in %: * significance p < 0.05; for protective effect against tissue destruction induced by Adriamycin: oral
From the text: According to current opinion, aggressive oxygen radicals, which are formed to excess during the chronic inflammation process and, as highly toxic inflammation mediators themselves, perpetually maintain the connective tissue destruction which proceeds via an irreversible lipid peroxidation of the cell membranes, are permanently involved in the progressive course, caused by a multitude of factors, of rheumatoid arthritis and other inflammatory disorders. As a result, antioxidatively active pharmaceuticals having the ability to deactivate these extremely cytotoxic oxygen radicals should permit specific engagement in the chronic course of the inflammation. A suitable animal model for this type of tissue destruction caused by oxygen radicals is Adriamycin (doxorubicin) induced inflammation in rats. The investigations were carried out by the method of D. M. Siegel et al. (Inflammation 4 (1980) p. 233) on male Sprague-Dawley rats having a body weight between 200 and 230 g in groups of 7 animals each, which received 0.1 mg of Adriamycin, dissolved in 0.1 ml of a 0.9% strength sodium chloride solution, by subcutaneous injection into the left rear paw. The increase in paw volume was determined by plethysmographic measurement 72 hours thereafter as a measure of the degree of inflammation. The test preparations were administered orally in 1% strength aqueous carboxymethylcellulose suspension once daily on 4 successive days, starting with the day of Adriamycin injection.

[6] = system: microsomal lipid peroxidation; assay: In-vitro inhibition of lipid peroxidation, microsomes (thiobarbituric acid test); type: biochemical; settings: microsomes from the rat liver
From the text: (§2) Further convincing evidence of the pronounced protective action of the compounds according to the invention against aggressive oxygen radicals is provided by the thiobarbituric acid test of A. Ottolenghi (Arch. Biochem. Biophys. 79 (1959) pp. 355-363). Using this in-vitro method, the affect on microsomal and mitochondrial lipid peroxidation by antioxidatively active preparations can be determined from the malonodialdehyde produced on oxidative degredation of membrane-bound, polyunsaturated fatty acids.
(§3) Here too, the compounds of the formula I exerted a strong inhibitory action.

[7] = system: mitochondrial lipid peroxidation; assay: In-vitro inhibition of lipid peroxidation, mitochondria (thiobarbituric acid test); type: biochemical; settings: mitochondria from the rat liver
From the text: as §2, §3

5-lipoxygenase = assay: Inhibition of 5-lipoxygenase in isolated polymorphonuclear granulocytes; type: cell-based, human; settings: concentration range between 10^-5 and 10^-6 mol/l, pre-incubation 15 minutes
Method: The inhibitory action of the compounds according to the invention on 5-lipoxygenase-catalysed degredation of arachidonic acid was investigated,as usual, in in-vitro experiments on isolated polymorphonuclear human granulocytes. To this purpose, cells stimulated by calcium ionophor A 23 187 (Calbiochem GmbH, Frankfurt/Main, FRG, Biochemical and Immunochemical Catalog 1985, p. 284) were incubated with ^14 C-labeled arachidonic acid, and the major radioactive degredation products of arachidonic acid, 5-hydroxyeicosatetraenoic acid (5-HETE) and leukotriene […] (LTB4), which has a particularly strong proinflammatory action, formed after 15 minutes at 37° C. by biotransformation were determined quantitatively with the aid of a radio monitor after separation by high-pressure liquid chromatography (HPLC).

Arthus reaction = assay: Active Arthus reaction; type: in vivo, female and male Sprague-Dawley rats; settings: oral
Method: The experimental animals used were female and male Sprague-Dawley rats having a body weight between 80 and 100 g; they were injected subcutaneously into the tail root with 0.5 ml of an emulsion of pertussis vaccine and ovalbumin in paraffin oil. After two weeks, the rats were divided into groups of 8 animals each. The respective test substance or the pure vehicle (positive control) were administered orally 24 hours and one hour before induction of the Arthus reaction by injecting 0.1 ml of a 0.4% strength ovalbumin solution into the right rear paw. Sodium chloride solution was injected into the left paw. A group of non-sensitized animals (negative control) was likewise treated with ovalbumin in order to be able to exclude non-specific reactions to the protein. The measurement parameter used for the action of the preparation was the inhibition of the increase in paw volume compared to that of a sensitized, but untreated control group (positive control) 4 hours after ovalbumin provocation, when the swelling reaches its maximum.

[8] = NMRI mice, single i.p. administration, mortality within 7 days

SMILES	Adjuvant arthritis (% inhibition at 50 mg/kg p.o.) (Adjuvant arthritis)	TD50 at 24 h [1]	LD50 at 168 h (in vivo; [8])	LD50 at 168 h (in vivo)	ED50 (Adjuvant arthritis)	normalization of the immune reactivity of lymphocytes towards mitogens (lymphocytes [2])	inhibition of the increase in paw volume, collagen arthritis [3]	effect on immune function of lymphocytes in collagen arthritis (lymphocytes [4])	protective effect against tissue destruction induced by Adriamycin [5]	also measured
CC(C)(C)c1cc(-c2csc3nc(=O)c(CO)nn23)cc(C(C)(C)C)c1O [Example 3, 3-(3,5-Di-tert.butyl-4-hydroxyphenyl)-6-hydroxymethyl-7H-thiazolo[3,2-b][1,2,4]triazin-7-one]	41%	> 200 mg/kg	> 1200 mg/kg	–	–	–	–	–	–	–
Cc1nn2c(-c3cc(C(C)(C)C)c(O)c(C(C)(C)C)c3)csc2nc1=O [Example 6]	50%	> 200 mg/kg	–	> 1200 mg/kg	–	–	–	–	–	–
CC(C)(C)c1cc(-c2csc3nc(=O)cnn23)cc(C(C)(C)C)c1O [Example 1, 3-(3,5-Di-tert.butyl-4-hydroxyphenyl)-7H-thiazolo[3,2-b][1,2,4]triazin-7-one]	67%	> 400 mg/kg	> 1200 mg/kg	–	10.9 mg/kg	substantial normalization of the immune reactivity	dose-dependent inhibition of the increase in paw volume	completely normalized the immune function of both T and B lymphocytes	strong, dose-dependent protective effect	selectivity ratio [1]: > 36.7; selectivity ratio (in vivo; LD50 (mice i.p.) / ED50 (adjuvant arthritis), read-out: therapeutic range, quotient LD50/ED50): > 110; minimal effective dose ([3]; Rattus norvegicus, po, collagen arthritis, p.o., read-out: dose from which inhibition of the increase in paw volume was statistically significant): ≥ 25 mg/kg; Increase in paw volume ([5]; 20 mg/kg p.o.): 220 µL; Protective action in % ([5]; 20 mg/kg p.o.): 49%; Increase in paw volume ([5]; 40 mg/kg p.o.): 200 µL; Protective action in % ([5]; 40 mg/kg p.o.): 54%; Increase in paw volume ([5]; 80 mg/kg p.o.): 10 µL; Protective action in % ([5]; 80 mg/kg p.o.): 98%; IC50 [6]: 600 nM; IC50 [7]: 3000 nM; inhibition of formation of 5-HETE (5-lipoxygenase): significantly inhibited; inhibition of formation of LTB4 (5-lipoxygenase): significantly inhibited
Cc1cc(-c2csc3nc(=O)cnn23)cc(C(C)(C)C)c1O [Example 2, 3-(3-Tert.butyl-5-methyl-4-hydroxyphenyl)-7H-thiazolo[3,2-b][1,2,4]triazin-7-one]	41%	> 400 mg/kg	> 1200 mg/kg	–	–	–	–	–	–	–
COc1ccc2cc(C(C)C(=O)O)ccc2c1 (stereo not shown) [Naproxen, 2-(6-methoxy-2-naphthyl)-propionic acid, reference compound]	55%	–	–	–	17.5 mg/kg	ineffective	only non-significant inhibition values	no effect	ineffective	effect on Arthus reaction (Arthus reaction): ineffective
CCCc1nn2c(-c3cc(C(C)(C)C)c(O)c(C(C)(C)C)c3)csc2nc1=O [Example 9]	45%	> 200 mg/kg	–	> 1200 mg/kg	–	–	–	–	–	–

— US4908364A, “Substituted 3-phenyl-7H-thiazol[3,2-b][1,2,4]-triazin-7-ones” (Hoechst Aktiengesellschaft, priority 1987, dated 1990)
